In publication PMC11019746 (ACS Pharmacology & Translational Science, 2024):
Like-named read-outs stand apart in the source and are kept apart here. Marks after values point to notes of the source that are not given here.

Legend:
[1] = molecular target: T1, Y4R (Homo sapiens, UniProt P50391); assay: radioligand competition binding; conditions: cited from earlier work
[2] = molecular target: Y5 receptor (Homo sapiens) (UniProt Q15761); conditions: cited from earlier work
[3] = molecular target: Y1 receptor (Homo sapiens) (UniProt P25929); conditions: cited from earlier work
[4] = molecular target: T1, Y4R; assay: radioligand competition binding (137 mM Na+); conditions: cited from earlier work
[5] = molecular target: Y2 receptor (Homo sapiens) (UniProt P49146); conditions: cited from earlier work
[6] = molecular target: T1, Y4R; conditions: cited from earlier work
[7] = molecular target: T2, hY1R (Homo sapiens, UniProt P25929); assay: Y1R radioligand competition binding, whole SK-N-MC cells, [3H]UR-MK299; conditions: SK-N-MC neuroblastoma cells, [3H]UR-MK299 c = […]
T2 construct: host or cells: SK-N-MC neuroblastoma cells
T2 sequence (P25929 1-384): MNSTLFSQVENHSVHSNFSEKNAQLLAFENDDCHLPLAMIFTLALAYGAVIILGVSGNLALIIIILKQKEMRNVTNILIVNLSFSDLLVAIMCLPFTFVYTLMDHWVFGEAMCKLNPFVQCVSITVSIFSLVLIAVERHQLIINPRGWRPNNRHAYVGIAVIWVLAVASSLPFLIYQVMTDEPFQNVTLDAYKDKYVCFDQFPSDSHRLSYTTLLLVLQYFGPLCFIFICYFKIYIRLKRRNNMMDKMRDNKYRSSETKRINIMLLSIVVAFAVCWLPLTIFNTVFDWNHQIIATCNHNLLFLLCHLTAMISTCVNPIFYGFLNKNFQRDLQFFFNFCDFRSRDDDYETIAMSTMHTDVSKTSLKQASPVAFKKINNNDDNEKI
Method: (§1) All radioligand binding assays were performed at intact Y receptor expressing cells at 23 ± 2 °C.
Competition binding assays at Y1R-expressing SK-N-MC neuroblastoma cells were performed as previously described using [^3H]UR-MK299 as radioligand (concentration: 0.15 nM).[33] […] (logarithmic form in the case of pKi values).

[8] = molecular target: T3, hY4R (Homo sapiens, UniProt P50391); assay: Y4R Ca2+ aequorin assay (CHO-hY4R-Gqi5-mtAEQ cells); assay type: cell-based; parameters: expressed in transfected cells; host or cells: CHO (co-expressing Gqi5 and mitochondrially targeted aequorin); conditions: read-out: Ca2+-aequorin Emax ± SEM
Method: The assay was performed with live CHO-hY4R-Gqi5-mtAEQ cells as previously described (used buffer: buffer III). Measurements were carried out on a Tecan Infinite Lumi plate reader. Data analysis was performed as reported using GraphPad Prism 5 for the calculation of the area under the curve. […] Efficacies Emax correspond to the upper plateaus of the normalized concentration–response curves.

[9] = molecular target: T4, hY5R (Homo sapiens, UniProt Q15761); assay: Y5R radioligand competition binding, whole HEC-1B-hY5R cells, [3H]propionyl-pNPY; conditions: [3H]propionyl-pNPY c = 5 nM
T4 construct: expressed in transfected cells; host or cells: HEC-1B (human endometrial cancer)
T4 sequence (Q15761 1-445): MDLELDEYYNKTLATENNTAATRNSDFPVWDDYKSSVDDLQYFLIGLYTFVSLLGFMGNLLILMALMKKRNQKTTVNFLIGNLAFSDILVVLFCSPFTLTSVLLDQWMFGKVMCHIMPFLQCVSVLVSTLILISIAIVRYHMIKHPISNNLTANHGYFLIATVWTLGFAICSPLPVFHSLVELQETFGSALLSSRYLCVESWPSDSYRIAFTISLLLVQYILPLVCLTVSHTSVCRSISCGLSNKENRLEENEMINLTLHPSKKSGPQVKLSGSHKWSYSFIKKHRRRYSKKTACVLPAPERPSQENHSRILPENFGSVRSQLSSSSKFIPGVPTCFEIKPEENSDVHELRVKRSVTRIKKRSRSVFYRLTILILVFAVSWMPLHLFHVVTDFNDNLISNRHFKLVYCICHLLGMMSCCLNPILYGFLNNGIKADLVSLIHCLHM
Method: as §1
(logarithmic form in the case of pKi values).

[10] = molecular target: T1, Y4R; assay: Y4R miniGsi recruitment assay (HEK293T-NlucN-mGsi/Y4R-NlucC cells); assay type: cell-based; parameters: expressed in transfected cells; host or cells: HEK293T; conditions: for Emax: read-out: miniGsi recruitment Emax ± SEM; for EC50: HEK293T-NlucN-mGsi/Y4R-NlucC cells; as to miniGsi recruitment Emax ± SEM: relative to 1 µM hPP (100%)
Method: Furimazine was used as nanoluciferase substrate. The original stock was diluted 1:1000 in L15-HEPES to obtain the feed solution for the assay. Data analysis was performed based on the areas under the curves (time window: 45 min starting with the agonist addition) using GraphPad Prism 5. […] Efficacies Emax correspond to the upper plateaus of the normalized concentration–response curves.

[11] = Chemical stability in PBS pH 7.4; assay type: physicochemical; conditions: PBS pH 7.4, room temperature, 48 h, 100 μM
Method: The chemical stability of the fluorescent ligands 16, 17, and 18 was investigated in PBS (adjusted to pH 7.4) at 22 °C. […] After time periods of 0, 6, and 48 h, an aliquot (25 μL) was withdrawn and added to 25 μL of acetonitrile/0.04% aq. TFA 1:9 v/v to obtain a peptide solution with a concentration of 50 μM. 20 μL of this solution were subjected to analytical RP-HPLC analysis using the same system and conditions as described under Analytical HPLC, but applying a different linear gradient: 0–14 min: A/B 90:10–45:55, 14–15 min: 45:55–5:95, 15–19 min: 5:95 (isocratic). A 1:1 mixture of PBS and acetonitrile/0.04% aq. TFA 1:9 v/v (20 μL) was analyzed to obtain the blank chromatogram.

[12] = molecular target: T3, hY4R; assay: Y4R cAMP CAMYEN assay (HEK293T-CAMYEN-hY4R cells); assay type: cell-based; parameters: expressed in transfected cells; conditions: read-out: CAMYEN cAMP Emax ± SEM; also: relative to 1 µM hPP (100%)
Method: The assay was performed with live HEK293T-CAMYEN-hY4R cells applying a reported protocol.[31] Experiments were performed in triplicate. Data processing was performed with GraphPad Prism 9.0 as previously described.[31]

[13] = molecular target: T5, hY2R (Homo sapiens, UniProt P49146); assay: Y2R radioligand competition binding, whole CHO-hY2R cells, [3H]propionyl-pNPY; conditions: read-out: pKi ± SEM hY2R (converted)
T5 construct: host or cells: CHO
T5 sequence (P49146 1-381): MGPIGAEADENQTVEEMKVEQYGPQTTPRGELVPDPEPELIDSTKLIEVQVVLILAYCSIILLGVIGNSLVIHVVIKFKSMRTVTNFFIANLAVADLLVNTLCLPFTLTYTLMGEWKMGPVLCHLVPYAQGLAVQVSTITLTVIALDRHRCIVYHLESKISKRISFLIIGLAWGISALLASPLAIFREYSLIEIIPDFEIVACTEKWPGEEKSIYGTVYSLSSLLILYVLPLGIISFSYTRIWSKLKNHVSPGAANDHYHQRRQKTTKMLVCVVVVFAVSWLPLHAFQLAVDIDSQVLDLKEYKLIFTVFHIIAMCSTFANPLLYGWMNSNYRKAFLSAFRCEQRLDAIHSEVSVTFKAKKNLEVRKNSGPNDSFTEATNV
Method: as §1

[14] = molecular target: T6, Y4R^SwBac displaying BBVs (Homo sapiens, UniProt P50391); assay: Fluorescence anisotropy Y4R competition binding with 16 (Y4R^SwBac BBVs); conditions: DPBS, 16 (0.5 nM) as labeled probe, read-out: pKi FA, 137 mM Na+ (converted)
T6 construct: made in house; host or cells: Sf9 insect cells (budded baculovirus particles; MultiBac, with or without the SweetBac module)
Method: Two types of MultiBac baculoviruses were used: one type encodes only for hY4R resulting in BBVs displaying Y4R devoid of a mammalian-like glycosylation (herein termed Y4R^nonglyco) and the second type additionally encodes for enzymes providing a mammalian-like glycosylation in Sf9 cells (herein termed Y4R^SwBac; see also Section Molecular Cloning). The obtained viruses were collected by centrifugation at 1600g for 10 min, and the virus titer was determined with an image-based cell-size estimation assay as described elsewhere.[64] […]
FA measurements were carried out using a Synergy NEO multimode plate reader (BioTek, Winooski, VT) and black, half-area, flat-bottom polystyrene NBS (nonbinding surface) 96-well plates (Corning, Corning, NY, product no. 3993). Polarizing excitation (530 ± 15 nm) and dual emission (590 ± 17.5 nm) filters with a dichroic mirror were used, allowing the simultaneous detection of parallelly and perpendicularly polarized fluorescence emission. […]
FA signals were measured for 1.5 h.
Data processing for FA binding assays was assisted by the software Aparecium 2.0.20 developed in house (http://www.gpcr.ut.ee/software.html). Prior to the calculation of FA using eq 1,[19] the measured parallel [I∥(t)] and perpendicular [I⊥(t)] fluorescence intensities were blank-corrected on the basis of the values obtained from wells containing BBVs but no receptor ligand. […]

[15] = molecular target: hY4R-Nluc(intraECL2) (Homo sapiens, UniProt P50391, INS195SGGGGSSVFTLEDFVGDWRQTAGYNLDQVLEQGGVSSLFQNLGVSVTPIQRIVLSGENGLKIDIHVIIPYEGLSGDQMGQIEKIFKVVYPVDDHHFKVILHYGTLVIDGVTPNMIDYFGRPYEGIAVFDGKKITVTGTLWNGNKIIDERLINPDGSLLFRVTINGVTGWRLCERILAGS); assay: NanoBRET Y4R competition binding with 16
Method: One the day prior to the experiment, HEK293T-hY4R-Nluc(intraECL2) cells were detached from the culture flask by trypsinization, centrifuged (500g, 5 min), and resuspended in FBS-free L15-HEPES. The cell density was adjusted to 1.14 × 10^6 cells/mL, and the cells were seeded into white 96-well plates (Brand, Wertheim, Germany) (70 μL, 80,000 cells per well) and incubated overnight in a water-saturated atmosphere (only atmospheric CO2). […] The final BSA concentration in the assay was 1.5% (30 μL of a solution containing 5% BSA added to 70 μL of BSA-free medium, as outlined below).
All BRET measurements were performed at a temperature of 25 °C using a TECAN Infinite Lumi plate reader (Tecan, Crailsheim, Germany) equipped with an injection module. Bioluminescence of the nanoluciferase was detected using a 460/35 nm band-pass (460/35 BP) filter. The emission of the fluorescent ligands was detected through a 610 nm long-pass (610 LP) filter. […]
Total binding data from competition binding experiments were plotted as corrected BRET ratio over log(competitor concentration, M) and analyzed by a four-parameter logistic equation (log(inhibitor) vs response–variable slope, GraphPad Prism 5) to obtain the TOP value (upper curve plateau), which was used for data normalization (100% = TOP value, 0% = average of the corrected BRET ratio obtained from unspecific binding). […]

[16] = molecular target: T3, hY4R; parameters: expressed in transfected cells; host or cells: CHO (co-expressing Gqi5 and mitochondrially targeted aequorin); conditions: cited from earlier work
[17] = molecular target: T3, hY4R; assay: Flow cytometric Y4R competition binding with 16 as labeled ligand; parameters: expressed in transfected cells; host or cells: CHO (co-expressing Gqi5 and mitochondrially targeted aequorin); conditions: intact CHO-hY4R-Gqi5-mtAEQ cells
Method: The latter was used for injection of the samples of saturation and competition binding experiments. At least three individual experiments were performed in duplicate (kinetic experiments) or triplicate (saturation and competition binding). […] Measurements were stopped after counting of 2000–10000 gated events.
2 to 3 days prior to the experiment, cells were seeded in T75 or T175 culture flasks. On the day of the experiment, cells were detached by trypsinization, suspended in culture medium, and centrifuged. […] HCl (nonlabeled ligands, saturation, and kinetic experiments).

[18] = molecular target: T1, Y4R; conditions: cited from earlier work; remark: listed apart in the source
[19] = molecular target: T2, hY1R; conditions: cited from earlier work
[20] = molecular target: T5, hY2R; conditions: cited from earlier work
[21] = molecular target: T4, hY5R; conditions: cited from earlier work
[22] = read-out: pKi ± SEM hY1R (converted)
[23] = read-out: pKi ± SEM hY5R (converted)
[24] = DPBS, 16 (1 nM) as labeled probe, read-out: pKi flow cytometry, 137 mM Na+ (converted)
[25] = buffer I, 16 (0.5 nM) as labeled probe, read-out: pKi flow cytometry, Na+ free (converted)

In the case of hPP (from UniProt P01298), the Ki [1] is given as 0.1 nM, the Ki [2] is given as 17 nM and the Ki [3] is given as 440 nM. The Ki [4] was 0.079 nM and the Ki [5] was greater than 3000 nM.

In the case of Sulfo-Cy5-[K4]hPP (from UniProt P01298), the Kd [6] is listed as 5.6 nM.

Compound `CC(C)C[C@H](NC(=O)[C@@H]1CCCNC(N)=NC(=O)NCCCCNC(=O)[C@H](NC(=O)CCCNC(=O)CCC#Cc2ccc3c(c2)C(C)(C)C2=C4C=C5C6=[N+](CCC5OC4CCN23)c2ccc(S(=O)(=O)[O-])cc2C6(C)C)CC(=O)N[C@@H](CCCNC(=N)N)C(=O)N[C@@H](Cc2ccc(O)cc2)C(=O)N1)C(=O)N[C@@H](CCCNC(=N)N)C(=O)N[C@@H](Cc1ccc(O)cc1)C(N)=O` (some centres unmarked) [Compound 16] has a Ki ([7]; read-out: Ki hY1R (converted)) of 120 nM, a Ki [7, 22] of 123 nM and an Emax [8] of 66 ± 2%. The Ki ([9]; read-out: Ki hY5R (converted)) was 480 nM, the Ki [9, 23] was 479 nM and the Emax [10] was 72 ± 9%. For the same compound, the chemical stability [11] was “excellent stability”, the Emax [12] was 93 ± 5% and the Ki [13] was greater than 1000 nM.

In the case of `CCC(=O)NCCCC(=O)N[C@@H]1CC(=O)N[C@@H](CCCNC(=N)N)C(=O)N[C@@H](Cc2ccc(O)cc2)C(=O)N[C@H](C(=O)N[C@@H](CC(C)C)C(=O)N[C@@H](CCCNC(=N)N)C(=O)N[C@@H](Cc2ccc(O)cc2)C(N)=O)CCCNC(N)=NC(=O)NCCCCNC1=O` [Compound 7], the Ki [14] is given as 0.398 nM, the Ki [15] is given as 0.851 nM and the “pKi literature, 137 mM Na+” value [16] is given as 9.79 ^e. The Ki [17, 24] was 1.58 nM and the Ki [17, 25] was 0.245 nM.

In the case of “5-TAMRA-[K18,Nle17,30]hPP (2) (from UniProt P01298)”, the Kd [18] is listed as 26 nM.

With `CC(C)C[C@H](NC(=O)[C@@H]1CCCNC(N)=NC(=O)NCCCCNC(=O)[C@H](NC(=O)CCCNC(=O)CCCCCN2/C(=C/C=C/C=C/C3=[N+](CCCCS(=O)(=O)[O-])c4ccccc4C3(C)C)C(C)(C)c3cc(S(=O)(=O)O)ccc32)CC(=O)N[C@@H](CCCNC(=N)N)C(=O)N[C@@H](Cc2ccc(O)cc2)C(=O)N1)C(=O)N[C@@H](CCCNC(=N)N)C(=O)N[C@@H](Cc1ccc(O)cc1)C(N)=O` [Compound 17] the Ki [7, 22] was greater than 1000 nM, the Emax [8] was 71 ± 3% and the Ki [9, 23] was greater than 1000 nM. The EC50 ([10]; read-out: miniGsi recruitment pEC50 ± SEM (converted)) was 85.1 nM, the Emax [10] was 70 ± 9% and the chemical stability [11] was “excellent stability”. For the same compound, the Emax [12] was 90 ± 3% and the Ki [13] was greater than 1000 nM.

In the case of `CC(C)C[C@H](NC(=O)[C@@H]1CCCNC(N)=NC(=O)NCCCCNC(=O)CCC(=O)N[C@@H](CCCNC(=N)N)C(=O)N[C@@H](Cc2c[nH]c3ccccc23)C(=O)N1)C(=O)N[C@@H](CCCNC(=N)N)C(=O)N[C@@H](Cc1ccc(O)cc1)C(N)=O` [Compound 5], the Ki [14] is given as 0.55 nM, the Ki [19] is given as greater than 10000 nM and the “pKi hY1R” value [19] is given as less than 5. For the same compound, the Ki [20] was greater than 10000 nM, the “pKi hY2R” value [20] was less than 5 and the EC50 ([10]; read-out: miniGsi recruitment EC50 (converted)) was 1.8 nM. It also gave an Emax [10] of 61 ± 2%, a Ki [15] of 1.29 nM and a Ki [17, 24] of 0.708 nM. The Ki [17, 25] was 0.324 nM, the Ki [21] was greater than 3000 nM and the “pKi hY5R” value [21] was less than 5.5.
